# Active and inactive are the calls of the source. Cut-off read from the data, not from the text of the source, for most assays here: actives have a measured IC50 and inactives only a lower limit.
# Key:
# SUMO E1/E2 = SUMO E1/E2 (Homo sapiens, UniProt P63279+Q9UBE0+Q9UBT2); assay: SAR analysis of SUMOylation using HTRF in an in-Vitro dose response assay. [Related pubchem assays (depositor defined):AID2006, AID2011, AID2018, AID2069, AID2658]; assay type: functional
# SUMO-activating enzyme = SUMO-activating enzyme (Homo sapiens, UniProt Q9UBT2); assay: blockers of UBC9-mediated SUMO conjugation – biochemical, AlphaScreen, SUMOylation inhibitor project, confirmation (AID 2018); assay type: functional
# [1] = target: T1, Tyrosine-protein phosphatase non-receptor type 7 (Homo sapiens, UniProt P35236); assay type: functional
# T1 sequence (P35236 whole entry): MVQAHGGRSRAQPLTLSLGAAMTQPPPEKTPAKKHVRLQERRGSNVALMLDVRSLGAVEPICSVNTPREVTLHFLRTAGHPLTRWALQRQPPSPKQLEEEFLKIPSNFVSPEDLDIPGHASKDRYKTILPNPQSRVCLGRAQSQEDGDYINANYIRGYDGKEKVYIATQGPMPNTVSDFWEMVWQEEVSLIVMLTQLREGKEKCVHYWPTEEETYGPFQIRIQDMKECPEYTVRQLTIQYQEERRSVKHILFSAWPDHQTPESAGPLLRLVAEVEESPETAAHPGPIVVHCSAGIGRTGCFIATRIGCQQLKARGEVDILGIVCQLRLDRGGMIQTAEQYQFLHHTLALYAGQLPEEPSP
# [2] = target: T2, Dual specificity protein phosphatase 6 (Rattus norvegicus, UniProt Q64346); assay type: functional;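 note: confirmatory in vitro dose-response testing of MKP-3 inhibition; recombinant His-tagged MKP-3 made in E. coli BL21 with OMFP substrate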
# T2 sequence (Q64346 whole entry): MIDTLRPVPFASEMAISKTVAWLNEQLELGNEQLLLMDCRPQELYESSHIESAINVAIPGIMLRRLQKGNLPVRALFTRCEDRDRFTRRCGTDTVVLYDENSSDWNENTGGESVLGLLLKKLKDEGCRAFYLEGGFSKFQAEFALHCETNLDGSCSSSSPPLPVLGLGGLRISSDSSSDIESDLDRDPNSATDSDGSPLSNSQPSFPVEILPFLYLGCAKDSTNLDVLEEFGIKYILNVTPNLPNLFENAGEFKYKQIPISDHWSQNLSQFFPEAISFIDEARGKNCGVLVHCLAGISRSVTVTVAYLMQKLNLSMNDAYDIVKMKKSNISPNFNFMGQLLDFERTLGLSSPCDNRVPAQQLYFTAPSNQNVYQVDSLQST
# [3] = target: T3, Tyrosine-protein phosphatase non-receptor type 22 (Homo sapiens, UniProt Q9Y2R2); assay: LYP1 Fluorescent Assay using OMFP substrate for In Vitro dose response studies. [Related pubchem assays (depositor defined):AID1779, AID1784, AID435024]
# T3 sequence (Q9Y2R2 whole entry): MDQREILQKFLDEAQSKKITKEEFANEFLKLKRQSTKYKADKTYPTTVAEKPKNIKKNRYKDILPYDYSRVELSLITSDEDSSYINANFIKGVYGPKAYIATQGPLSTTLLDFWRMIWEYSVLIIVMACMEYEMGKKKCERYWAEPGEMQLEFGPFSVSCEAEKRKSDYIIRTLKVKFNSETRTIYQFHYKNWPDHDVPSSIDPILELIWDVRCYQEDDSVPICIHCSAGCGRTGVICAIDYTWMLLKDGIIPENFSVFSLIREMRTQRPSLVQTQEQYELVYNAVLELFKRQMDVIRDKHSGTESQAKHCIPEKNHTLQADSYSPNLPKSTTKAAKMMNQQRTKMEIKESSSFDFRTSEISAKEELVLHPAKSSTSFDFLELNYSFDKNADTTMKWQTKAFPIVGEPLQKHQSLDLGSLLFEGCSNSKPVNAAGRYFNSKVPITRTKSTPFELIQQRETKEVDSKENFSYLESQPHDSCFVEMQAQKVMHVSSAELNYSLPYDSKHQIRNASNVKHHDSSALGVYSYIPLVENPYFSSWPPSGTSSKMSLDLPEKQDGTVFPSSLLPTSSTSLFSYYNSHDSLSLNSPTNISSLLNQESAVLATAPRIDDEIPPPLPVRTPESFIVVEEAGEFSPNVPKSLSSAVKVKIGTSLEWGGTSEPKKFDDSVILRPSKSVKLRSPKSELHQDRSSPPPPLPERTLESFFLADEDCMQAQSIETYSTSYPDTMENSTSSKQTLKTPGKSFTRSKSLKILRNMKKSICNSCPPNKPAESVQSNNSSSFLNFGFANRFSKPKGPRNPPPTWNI
# Insulin-degrading enzyme [4] = target: T4, Insulin-degrading enzyme (Homo sapiens, UniProt P14735); assay: recombinant IDE activation, cell-free – biochemical, fluorescence polarization, counter-screen for IDE activator project, dose response (AID 588681)
# T4 sequence (P14735 whole entry): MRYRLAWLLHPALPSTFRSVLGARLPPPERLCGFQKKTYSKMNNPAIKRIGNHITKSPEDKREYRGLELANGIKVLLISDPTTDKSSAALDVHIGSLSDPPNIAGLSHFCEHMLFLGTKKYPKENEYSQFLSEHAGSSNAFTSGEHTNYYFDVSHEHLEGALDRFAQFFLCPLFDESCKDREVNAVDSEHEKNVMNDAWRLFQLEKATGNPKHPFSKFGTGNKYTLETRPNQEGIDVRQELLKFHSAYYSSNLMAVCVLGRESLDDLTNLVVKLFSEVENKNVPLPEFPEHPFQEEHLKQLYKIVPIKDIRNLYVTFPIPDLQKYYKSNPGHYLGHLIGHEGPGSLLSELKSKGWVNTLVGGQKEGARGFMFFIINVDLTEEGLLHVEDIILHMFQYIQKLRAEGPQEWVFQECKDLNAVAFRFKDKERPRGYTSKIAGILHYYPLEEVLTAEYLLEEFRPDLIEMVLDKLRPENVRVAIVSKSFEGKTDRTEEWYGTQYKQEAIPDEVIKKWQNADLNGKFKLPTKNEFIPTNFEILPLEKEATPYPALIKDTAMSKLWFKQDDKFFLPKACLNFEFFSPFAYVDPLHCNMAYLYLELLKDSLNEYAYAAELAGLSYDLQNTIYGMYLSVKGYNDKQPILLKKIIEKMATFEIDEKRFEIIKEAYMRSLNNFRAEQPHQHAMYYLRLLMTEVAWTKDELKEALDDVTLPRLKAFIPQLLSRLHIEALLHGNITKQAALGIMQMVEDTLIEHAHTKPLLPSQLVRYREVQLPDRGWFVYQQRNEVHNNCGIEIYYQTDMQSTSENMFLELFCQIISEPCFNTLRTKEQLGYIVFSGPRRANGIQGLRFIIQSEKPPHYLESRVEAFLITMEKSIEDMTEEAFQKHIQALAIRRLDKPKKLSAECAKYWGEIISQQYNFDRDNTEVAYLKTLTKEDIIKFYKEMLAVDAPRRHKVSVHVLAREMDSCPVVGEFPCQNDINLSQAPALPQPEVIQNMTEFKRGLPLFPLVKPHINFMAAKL
# Insulin-degrading enzyme [5] = target: T4, Insulin-degrading enzyme; assay: cellular IDE activation of Abeta substrate cleavage – fluorescence polarization, HEK cells, dose response (AID 588439); assay type: functional, cell-based
# Sequence of SUMO E1/E2 (Q9UBE0 whole entry): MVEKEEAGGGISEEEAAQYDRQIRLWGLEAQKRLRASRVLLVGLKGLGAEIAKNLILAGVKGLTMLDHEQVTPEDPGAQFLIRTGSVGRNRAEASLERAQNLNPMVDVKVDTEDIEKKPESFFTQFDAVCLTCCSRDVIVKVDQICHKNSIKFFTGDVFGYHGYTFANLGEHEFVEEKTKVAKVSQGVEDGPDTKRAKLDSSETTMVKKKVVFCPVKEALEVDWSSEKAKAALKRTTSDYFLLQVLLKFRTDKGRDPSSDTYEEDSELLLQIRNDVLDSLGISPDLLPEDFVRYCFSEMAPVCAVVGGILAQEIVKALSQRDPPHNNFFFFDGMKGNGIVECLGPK
# Sequence of SUMO E1/E2 (Q9UBT2 whole entry): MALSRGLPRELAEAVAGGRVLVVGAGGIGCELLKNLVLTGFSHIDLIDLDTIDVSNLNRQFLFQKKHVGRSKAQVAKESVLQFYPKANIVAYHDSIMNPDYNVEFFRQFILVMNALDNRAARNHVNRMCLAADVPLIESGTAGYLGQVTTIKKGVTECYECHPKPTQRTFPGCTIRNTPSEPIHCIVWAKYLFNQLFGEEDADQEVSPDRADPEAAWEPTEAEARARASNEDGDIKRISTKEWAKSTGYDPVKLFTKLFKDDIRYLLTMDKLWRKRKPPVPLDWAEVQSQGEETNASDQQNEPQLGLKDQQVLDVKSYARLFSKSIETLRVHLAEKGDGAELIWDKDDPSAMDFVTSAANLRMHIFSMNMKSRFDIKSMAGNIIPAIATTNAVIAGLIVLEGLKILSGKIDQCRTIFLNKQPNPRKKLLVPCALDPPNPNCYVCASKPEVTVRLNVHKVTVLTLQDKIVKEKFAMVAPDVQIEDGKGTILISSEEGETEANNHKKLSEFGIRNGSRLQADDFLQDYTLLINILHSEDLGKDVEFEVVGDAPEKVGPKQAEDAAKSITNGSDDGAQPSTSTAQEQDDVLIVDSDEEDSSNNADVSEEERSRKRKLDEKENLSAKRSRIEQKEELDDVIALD
# Sequence of SUMO E1/E2 (P63279 whole entry): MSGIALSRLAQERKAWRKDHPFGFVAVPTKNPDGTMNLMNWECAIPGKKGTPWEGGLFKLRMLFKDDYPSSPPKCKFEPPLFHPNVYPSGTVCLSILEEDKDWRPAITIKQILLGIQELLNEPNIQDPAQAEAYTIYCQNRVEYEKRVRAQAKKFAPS
# Sequence of SUMO-activating enzyme (Q9UBE0 whole entry): as the sequence (Q9UBE0 whole entry) above
# Sequence of SUMO-activating enzyme (Q9UBT2 whole entry): as the sequence (Q9UBT2 whole entry) above
smiles,measurement,setting,value
C=CCn1c(NC(=O)c2ccccc2Cl)c(C#N)c2nc3ccccc3nc21,IC50,SUMO E1/E2,15.7 µM (active)
same,IC50,SUMO-activating enzyme,0.86 µM (active)
CCOC(=O)c1sc2nc3c(SCC(=O)O)cc(C(=O)c4ccccc4O)cn3c(=O)c2c1C,IC50,[1],< 1.24 µM (active)
same,IC50,[2],57.3 µM (active)
same,IC50,[3],> 99 µM (inactive)
O=c1oc2c(O)cccc2cc1-c1nc2ccccc2[nH]1,EC50,Insulin-degrading enzyme [4],> 54.7 µM (inactive)
same,EC50,Insulin-degrading enzyme [5],> 54.7 µM (inactive)

# Reference: ChEMBL document CHEMBL1201862, “PubChem BioAssay data set” (2004)
